# Patent publication US20260159536A1, “AKR1C3-ACTIVATED DNA ALKYLATING AGENT, AND MEDICAL APPLICATION THEREOF” (ASCENTAWITS PHARMACEUTICALS, LTD., priority 2021, published 2026)
# Experiments:
# H460 cells = test: Inhibition of H460 cancer cell proliferation (CTG, 72 h); assay type: cell-based; settings: Homo sapiens, NCI-H460
# Method: If not otherwise specified, IC50 values were measured by the following experimental methods:
# c) The cell suspension was added to 96-well plate with 100 μL per well and 2000 cells/well of cell density.
# a) Cells were plated for 24 hours, and then the compounds acted singly. 99 μL of growth medium was supplemented per well, and then 1 μL of 200× compound was added, gently shaken to ensure uniform mixing, and then placed in a 37° C., 5% CO2 incubator.
# b) The cell plate was placed in the incubator for 72 hours.
# b) 100 μL of CTG reagent (CelltiterGlo kit) was added to each well, the plate was placed in a rapid oscillator and shaken for 2 minutes, and then placed at room temperature for 30 minutes away from light.
# c) The chemiluminescence signal value was read with Envision instrument.
# The IC50 was calculated using GraphPad Prism 8 software and the IC50 (half inhibitory concentration) of the compounds was obtained using the following non-linear fitting formula: […]
# NCI-H1944 = test: AKR1C3-dependent cytotoxicity, NSCLC cell line NCI-H1944; assay type: cell-based; settings: Homo sapiens
# Method: (§1) The tested compound was then added. The compound was dissolved in 100% DMSO at 200 times of the desired final test concentration. When the medicament was added, the compound was further diluted to 4 times of the desired final test concentration by using the complete medium. 50 μL of aliquots of the compound with specific concentration were added to the microwells containing 150 μL of medium, and then the final medicament concentration was obtained. […] The medicament was then washed. […] After the incubation was finished, the Alamar Blue was used to analyze and quantify the living cells.
# NCI-H2228 = test: AKR1C3-dependent cytotoxicity, NSCLC cell line NCI-H2228; assay type: cell-based; settings: Homo sapiens
# Method: as §1
# NCIH1755 = test: AKR1C3-dependent cytotoxicity, NSCLC cell line NCIH1755; assay type: cell-based; settings: Homo sapiens, NCI-H1755
# Method: as §1
# NCI-H1563 = test: AKR1C3-dependent cytotoxicity, NSCLC cell line NCI-H1563; assay type: cell-based; settings: Homo sapiens
# Method: as §1
# NCI-H2110 = test: AKR1C3-dependent cytotoxicity, NSCLC cell line NCI-H2110; assay type: cell-based
# Method: as §1
# CAL12T = test: AKR1C3-dependent cytotoxicity, NSCLC cell line CAL12T; assay type: cell-based; settings: Homo sapiens, CAL-12T
# Method: as §1
# NCI-H23 = test: AKR1C3-dependent cytotoxicity, NSCLC cell line NCI-H23; assay type: cell-based; settings: Homo sapiens
# Method: as §1
# [1] = tested on: HuPrime model LI6643 human liver cancer; test: In vivo pharmacodynamics, liver cancer LI6643 PDX model (Compound A, Sorafenib, AST-3424; section 4.7); parameters: species or system BALB/c nude mice; settings: for Tumor volume (x ± S): in mm³
# Method: Experiment Instruction: BALB/c nude mice were subcutaneously inoculated with HuPrime® model LI6643 tumor blocks to establish a subcutaneous grafted tumor model of human liver cancer. […] The efficacy was evaluated according to the relative tumor inhibition rate TGI (%), and the safety was evaluated according to the change in body weight and the death of the animals.
# [2] = tested on: HuPrime model LI6664 human liver cancer; test: In vivo pharmacodynamics, liver cancer LI6664 PDX model; parameters: species or system BALB/c nude mice; settings: Day 28
# Method: Experiment Instruction: BALB/c nude mice were subcutaneously inoculated with HuPrime® model LI6664 tumor blocks to establish a subcutaneous transplantation tumor model of human liver cancer. […] Among them, 7.5% anhydrous ethanol+7.5% polyoxyethylene (35) castor oil+85% glucose injection D5W (pH 7.4) vehicle control group was administered by tail vein once a week for 3 consecutive weeks; test drug AST-3424 0.3 mg/kg and 1 mg/kg groups were administered by tail vein injection once a day for 5 consecutive days, followed by 2 days off, followed by 2 weeks off, and then continuously administered for 5 consecutive days; the test drug AST-3424 1.25 mg/kg group was administered by tail vein injection once a week for 2 consecutive weeks, followed by one week off, and then continuously administered for 2 consecutive weeks, Compound A 0.5 mg/kg, 1.5 mg/kg, and 4.5 mg/kg groups were administered by tail vein injection once a week for three consecutive weeks, followed by 1 week off, and then administered for three consecutive weeks. […] The efficacy was evaluated according to the relative tumor inhibition rate TGI (%), and the safety was evaluated according to the change in body weight and the death of the animals.
# [3] = 0.3 mg/kg i.v. QDx5, 2 days off, 2 weeks off, QDx5, Day 21
# [4] = 1.25 mg/kg i.v. QWx2, 1 week off, QWx2, Day 21
# [5] = AST-3424 1 mg/kg i.v. QDx5, 2 days off, 2 weeks off, QDx5, Day 21
smiles,measurement,setting,value
C[C@@H](OP(=O)(N1CC1)N1CC1)c1ccc([N+](=O)[O-])c(Oc2cccc(C(=O)N(C)C)c2)c1 [AST-3424],IC50,H460 cells,0.11 nM
same,IC50,NCI-H1944,2.3 nM
same,IC50,NCI-H2228,0.21 nM
same,IC50,NCIH1755,8.2 nM
same,IC50,NCI-H1563,2.5 nM
same,IC50,NCI-H2110,1.1 nM
same,IC50,CAL12T,29.1 nM
same,IC50,NCI-H23,> 1000 nM
same,Relative tumor volume (x ± S),[1]; [3],1.92 ± 0.2
same,T/C (%),[1]; [3],39.84%
same,TGI (%),[1]; [3],60.16%
same,Tumor volume (x ± S),[1]; [3],250.47 ± 44.00
same,Tumor volume,"[1]; 0.3 mg/kg i.v., Day 0",124.74 mm^3
same,Tumor volume,"[1]; 0.3 mg/kg i.v., Day 3",210.50 mm^3
same,Tumor volume,"[1]; 0.3 mg/kg i.v., Day 7",242.31 mm^3
same,Tumor volume,"[1]; 0.3 mg/kg i.v., Day 10",227.43 mm^3
same,Tumor volume,"[1]; 0.3 mg/kg i.v., Day 14",208.00 mm^3
same,Tumor volume,"[1]; 0.3 mg/kg i.v., Day 17",223.43 mm^3
same,Tumor volume,"[1]; 0.3 mg/kg i.v., Day 21",250.47 mm^3
same,Tumor volume,"[1]; 0.3 mg/kg i.v., Day 24",302.15 mm^3
same,Tumor volume,"[1]; 0.3 mg/kg i.v., Day 28",386.93 mm^3
same,Relative tumor volume (x ± S),[1]; [4],1.36 ± 0.22
same,T/C (%),[1]; [4],28.14%
same,TGI (%),[1]; [4],71.86%
same,Tumor volume (x ± S),[1]; [4],169.64 ± 41.89
same,Tumor volume,"[1]; 1.25 mg/kg i.v., Day 0",124.62 mm^3
same,Tumor volume,"[1]; 1.25 mg/kg i.v., Day 3",205.56 mm^3
same,Tumor volume,"[1]; 1.25 mg/kg i.v., Day 7",217.23 mm^3
same,Tumor volume,"[1]; 1.25 mg/kg i.v., Day 10",216.04 mm^3
same,Tumor volume,"[1]; 1.25 mg/kg i.v., Day 14",187.94 mm^3
same,Tumor volume,"[1]; 1.25 mg/kg i.v., Day 17",176.52 mm^3
same,Tumor volume,"[1]; 1.25 mg/kg i.v., Day 21",169.64 mm^3
same,Tumor volume,"[1]; 1.25 mg/kg i.v., Day 24",174.54 mm^3
same,Tumor volume,"[1]; 1.25 mg/kg i.v., Day 28",146.31 mm^3
same,Relative tumor volume (x ± S),[1]; [5],0.66 ± 0.22
same,T/C (%),[1]; [5],13.68%
same,TGI (%),[1]; [5],86.32%
same,Tumor volume (x ± S),[1]; [5],75.89 ± 21.82
same,Tumor volume,"[1]; AST-3424 1 mg/kg i.v., Day 0",124.32 mm^3
same,Tumor volume,"[1]; AST-3424 1 mg/kg i.v., Day 3",156.70 mm^3
same,Tumor volume,"[1]; AST-3424 1 mg/kg i.v., Day 7",144.82 mm^3
same,Tumor volume,"[1]; AST-3424 1 mg/kg i.v., Day 10",110.44 mm^3
same,Tumor volume,"[1]; AST-3424 1 mg/kg i.v., Day 14",90.12 mm^3
same,Tumor volume,"[1]; AST-3424 1 mg/kg i.v., Day 17",97.62 mm^3
same,Tumor volume,"[1]; AST-3424 1 mg/kg i.v., Day 21",75.89 mm^3
same,Tumor volume,"[1]; AST-3424 1 mg/kg i.v., Day 24",89.34 mm^3
same,Tumor volume,"[1]; AST-3424 1 mg/kg i.v., Day 28",98.43 mm^3
same,relative tumor inhibition rate TGI (%),"[2]; 0.3 mg/kg i.v. QDx5, 2 days off, 2 weeks off, QDx5",45.85%
same,relative tumor inhibition rate TGI (%),"[2]; 1 mg/kg i.v. QDx5, 2 days off, 2 weeks off, QDx5",65.05%
same,relative tumor inhibition rate TGI (%),"[2]; 1.25 mg/kg i.v. QWx2, 1 week off, QWx2",52.42%
same,T/C (%),[2]; AST-3424 0.3 mg/kg,54.15%
same,Relative tumor volume (x ± S),"[2]; AST-3424 0.3 mg/kg, mean ± standard error",6.99 ± 1.31
same,Tumor volume (x ± S),"[2]; AST-3424 0.3 mg/kg, mean ± standard error, in mm³ (unit assumed)",746.71 ± 130.55
